Read-outs that look alike come from different tables or passages of the source.
Molecular target: TNFα (Homo sapiens, UniProt P01375)
Assay: HEK-Blue hTNFα reporter assay
Type: cell-based
Parameters: purchased R&D biosystem (R&D Systems) 210-TA-020/CF
Conditions: HEK-Blue hTNFα reporter cells; for Emax: read-out: TNFα reporter, Emax
Method in brief: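 Compounds preincubated 1 h at 37 °C with recombinant hTNFα ([…]), then added to HEK293 NF-κB-SEAP reporter cells, 10000 cells/well, 24 h at 37 °C. SEAP read by QUANTI-Blue at OD620; % inhibition versus stimulated and unstimulated controls, IC50 by 4-parameter fit.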

[1] = SEAP readout, read-out: IC50 Range

Sequence of TNFα (P01375 77-233 limits assumed): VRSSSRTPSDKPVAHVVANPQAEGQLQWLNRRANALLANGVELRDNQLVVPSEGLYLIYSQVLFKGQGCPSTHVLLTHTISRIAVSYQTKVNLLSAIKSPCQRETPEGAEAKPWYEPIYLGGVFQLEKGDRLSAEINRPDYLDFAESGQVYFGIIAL

Row | IC50 [1] [nM] | Emax [%] | IC50 (read-out: TNFα reporter, IC50) [nM] | Structure (SMILES)
1 | 25 to 100 |  |  | CN1C(=O)c2cccc(OC(F)F)c2[C@H]2C[C@@H]1c1nn3ccc(-c4cnc([C@@H](O)CN5CCC5)nc4)cc3c12 [Example 171]
2 | < 25 |  |  | [2H]C([2H])([2H])N1C(=O)c2cccc(OC(F)F)c2[C@H]2C[C@@H]1c1nn3cc(C)c(-c4cnc(C5(N)CCC5)nc4)cc3c12 [Example 181]
3 | < 25 |  |  | C[C@](O)(c1ncc(-c2ccn3nc4c(c3c2)[C@@H]2C[C@H]4NC(=O)c3cccc(OC(F)F)c32)cn1)C(F)F [Example 152]
4 | < 25 |  |  | [2H]C([2H])([2H])N1C(=O)c2cccc(C#N)c2[C@H]2C[C@@H]1c1nn3ccc(-c4cnc([C@]5(N)C[C@@](C)(O)C5)c(F)c4)cc3c12 [Example 309]
5 | 25 to 100 |  |  | [2H]C([2H])([2H])N1C(=O)c2cccc(C#N)c2[C@H]2C[C@@H]1c1nn3cc(F)c(-c4cnc([C@]5(N)C[C@@](C)(C#N)C5)nc4)nc3c12 [Example 311]
6 | < 25 |  |  | CN1C(=O)c2cccc(OC(F)F)c2[C@H]2C[C@@H]1c1nn3cc(F)c(-c4ccc(P5(=O)CCOCC5)nc4)cc3c12 [Example 161]
7 | < 25 |  |  | [2H]C([2H])([2H])N1C(=O)c2cccc(OC(F)F)c2[C@H]2C[C@@H]1c1nn3cnc(-c4cnc([C@]5(O)C[C@](C)(C#N)C5)nc4)cc3c12 [Example 273]
8 | < 25 |  |  | C[C@]1(C#N)C[C@](N)(c2ncc(-c3nc4c5c(nn4cc3F)[C@H]3C[C@@H]5c4c(OC(F)F)cccc4C(=O)N3)cn2)C1 [Example 235]
9 | < 25 |  |  | [2H]C([2H])([2H])N1C(=O)c2cccc(OC(F)F)c2[C@H]2C[C@@H]1c1nn3ccc(-c4cnc([C@](O)(CC#N)C(F)F)nc4)cc3c12 [Example 96]
10 | < 25 |  |  | [2H]C([2H])([2H])N1C(=O)c2cccc(OC(F)F)c2[C@H]2C[C@@H]1c1nn3ccc(-c4cnc(C5(N)CC5)nc4)cc3c12 [Example 255]
11 | < 25 |  |  | C[C@@](O)(CC#N)c1ncc(-c2ccn3nc4c(c3c2)[C@@H]2C[C@H]4NC(=O)c3cccc(OC(F)F)c32)cn1 [Example 163]
12 | < 25 |  |  | CN1C(=O)c2cccc(OC(F)F)c2[C@H]2C[C@@H]1c1nn3ccc(-c4cnc([C@](C)(O)CO)nc4)cc3c12 [Example 83]
13 | < 25 |  |  | CN1C(=O)c2cccc(OC(F)F)c2[C@H]2C[C@@H]1c1nn3ccc(-c4cnc(C5(N)CCC5)nc4)nc3c12 [Example 3, (7R,14S)-12-(2-(1-aminocyclobutyl)pyrimidin-5-yl)-1-(difluoromethoxy)-6-methyl-6,7-dihydro-7,14-methanobenzo[c]pyrimido[1′,2′:1,5]pyrazolo[4,3-f]azocin-5 (14H)-one]
14 | < 25 |  |  | CN1C(=O)c2cccc(OC(F)F)c2[C@H]2C[C@@H]1c1nn3ccc(-c4ccc([C@]5(N)C[C@@](C)(C(=O)O)C5)c(F)c4)cc3c12 [Example 154]
15 | < 25 |  |  | [2H]C([2H])([2H])N1C(=O)c2cccc(OC(F)F)c2[C@H]2C[C@@H]1c1nn3cc(C)c(-c4cnc([C@]5(N)C[C@@](C)(O)C5)nc4)cc3c12 [Example 201]
16 | < 25 |  |  | CN1C(=O)c2cccc(OC(F)F)c2[C@H]2C[C@@H]1c1nn3ccc(-c4ccc([C@]5(N)C[C@@](C)(C(=O)O)C5)nc4)cc3c12 [Example 165]
17 | < 25 |  |  | [2H]C([2H])([2H])N1C(=O)c2cccc(OC(F)F)c2[C@H]2C[C@@H]1c1nn3ccc(-c4cnc(C5(N)CCC5)nc4)cc3c12 [Example 248]
18 | < 25 |  |  | [2H]C([2H])([2H])N1C(=O)c2cccc(OC(F)F)c2[C@H]2C[C@@H]1c1nn3ccc(-c4cnc([C@@](C)(O)CC#N)nc4)cc3c12 [Example 89]
19 | < 25 |  |  | [2H]C([2H])([2H])N1C(=O)c2cccc(OC(F)F)c2[C@H]2C[C@@H]1c1nn3ccc(-c4cnc(C5(N)CCC5)c(F)c4)cc3c12 [Example 250]
20 | < 25 |  |  | CN1C(=O)c2cccc(OC(F)F)c2[C@H]2C[C@@H]1c1nn3cc(F)c(-c4cnc([C@@](C)(O)CC#N)nc4)cc3c12 [Example 116]
21 | < 25 |  |  | CN1C(=O)c2cccc(OC(F)F)c2[C@H]2C[C@@H]1c1nn3ccc(-c4ccc(P(C)(C)=O)nc4)nc3c12 [Example 13, (7R,14S)-1-(difluoromethoxy)-12-(6-(dimethylphosphoryl)pyridin-3-yl)-6-methyl-6,7-dihydro-7,14-methanobenzo[c]pyrimido[1′,2′:1,5]pyrazolo[4,3-f]azocin-5 (14H)-one]
22 | < 25 |  |  | [2H]C([2H])([2H])N1C(=O)c2cccc(C#N)c2[C@H]2C[C@@H]1c1nn3ccc(-c4cnc([C@]5(N)C[C@@](C)(C#N)C5)nc4)cc3c12 [Example 308]
23 | 25 to 100 |  |  | CN1C(=O)c2cccc(OC(F)F)c2[C@H]2C[C@@H]1c1nn3ccc(-c4cnc(C(C)(C)O)nc4)nc3c12 [Example 11, (7R,14S)-1-(difluoromethoxy)-12-(2-(2-hydroxypropan-2-yl)pyrimidin-5-yl)-6-methyl-6,7-dihydro-7,14-methanobenzo[c]pyrimido[1′,2′:1,5]pyrazolo[4,3-f]azocin-5 (14H)-one]

Row | IC50 [1] [nM] | Emax [%] | IC50 (read-out: TNFα reporter, IC50) [nM] | Structure (SMILES)
24 | < 25 |  |  | CN1C(=O)c2cccc(C#N)c2[C@H]2C[C@@H]1c1nn3ccc(-c4ccc(P(C)(C)=O)nc4)cc3c12 [Example 303]
25 | < 25 |  |  | NC1(c2ccc(-c3ccn4nc5c(c4c3)[C@@H]3C[C@H]5NC(=O)c4cccc(OC(F)F)c43)cn2)CCC1 [Example 203]
26 | < 25 |  |  | CN1C(=O)c2cccc(OC(F)F)c2[C@H]2C[C@@H]1c1nn3cc(F)c(-c4cnc([C@]5(N)C[C@@](C)(O)C5)nc4)nc3c12 [Example 27]
27 | 25 to 100 |  |  | [2H]C([2H])([2H])N1C(=O)c2cccc(OC(F)F)c2[C@H]2C[C@@H]1c1nn3ccc(-c4cnc(C5(NC)CC5)nc4)nc3c12 [Example 243]
28 | 25 to 100 |  |  | [2H]C([2H])([2H])N1C(=O)c2cccc(C)c2[C@H]2C[C@@H]1c1nn3ccc(-c4cnc(C5(N)CCC5)nc4)cc3c12 [Example 302, (7R,14R)-12-(2-(1-aminocyclobutyl)pyrimidin-5-yl)-1-methyl-6-(methyl-d3)-6,7-dihydro-7,14-methanobenzo[c]pyrido[1′,2′:1,5]pyrazolo[4,3-f]azocin-5 (14H)-one]
29 | 25 to 100 |  |  | Cn1ccc(N2CC=C(c3ccn4nc5c(c4c3)[C@@H]3C[C@H]5NC(=O)c4cccc(OC(F)F)c43)CC2)n1 [Example 315, (7R,14S)-1-(difluoromethoxy)-12-(1-(1-methyl-1H-pyrazol-3-yl)-1,2,3,6-tetrahydropyridin-4-yl)-6,7-dihydro-7,14-methanobenzo[c]pyrido[1′,2′:1,5]pyrazolo[4,3-f]azocin-5 (14H)-one]
30 | < 25 |  |  | CN1C(=O)c2cccc(OC(F)F)c2[C@H]2C[C@@H]1c1nn3ccc([C@H]4CC[C@@H](OC[C@H](O)CO)CC4)cc3c12 [Example 317, (7R,14S)-1-(difluoromethoxy)-12-((1S,4R)-4-((R)-2,3-dihydroxypropoxy)cyclohexyl)-6-methyl-6,7-dihydro-7,14-methanobenzo[c]pyrido[1′,2′:1,5]pyrazolo[4,3-f]azocin-5 (14H)-one]
31 | < 25 |  |  | CN1C(=O)c2cccc(OC(F)F)c2[C@H]2C[C@@H]1c1nn3cc(F)c(-c4ccc(P(C)(C)=O)nc4)nc3c12 [Example 25]
32 | < 25 |  |  | [2H]C([2H])([2H])N1C(=O)c2cccc(OC(F)F)c2[C@H]2C[C@@H]1c1nn3ccc(-c4cnc([C@]5(N)C[C@@H](C#N)C5)nc4)nc3c12 [Example 176]
33 | < 25 |  |  | [2H]C([2H])([2H])N1C(=O)c2cccc(OC(F)F)c2[C@H]2C[C@@H]1c1nn3ccc(-c4cnc5c(c4)CC[C@]5(C)N)cc3c12 [Example 327]
34 | < 25 |  |  | CN1C(=O)c2cccc(OC(F)F)c2[C@H]2C[C@@H]1c1nn3ccc(-c4ncc([C@H](O)[C@H]5CCO5)cn4)cc3c12 [Example 132]
35 | < 25 |  |  | [2H]C([2H])([2H])N1C(=O)c2cccc(OC(F)F)c2[C@H]2C[C@@H]1c1nn3ccc(-c4ncc(C5(N)CCC5)cn4)cc3c12 [Example 211]
36 | < 25 |  |  | [2H]C([2H])([2H])N1C(=O)c2cccc(OC(F)F)c2[C@H]2C[C@@H]1c1nn3cc(F)c(-c4cnc([C@]5(N)C[C@H](C#N)C5)nc4)cc3c12 [Example 290]
37 | < 25 |  |  | C[C@]1(C#N)C[C@](N)(c2ccc(-c3ccn4nc5c(c4c3)[C@@H]3C[C@H]5NC(=O)c4cccc(OC(F)F)c43)cn2)C1 [Example 212]
38 | < 25 |  |  | [2H]C([2H])([2H])N1C(=O)c2cccc(OC(F)F)c2[C@H]2C[C@@H]1c1nn3ccc(-c4cnc(C5(N)CC5)cn4)cc3c12 [Example 266]
39 | < 25 | 90 | 3.1 | CN1C(=O)c2cccc(OC(F)F)c2[C@H]2C[C@@H]1c1nn3ccc(-c4cnc(C5(O)CCOCC5)nc4)cc3c12 [Example 65]
40 | < 25 |  |  | CN1C(=O)c2cccc(OC(F)F)c2[C@H]2C[C@@H]1c1nn3ccc(-c4cnc([C@]5(O)C[C@@H](O)C5)nc4)cc3c12 [Example 82]
41 | < 25 |  |  | [2H]C([2H])([2H])N1C(=O)c2cccc(OC(F)F)c2[C@H]2C[C@@H]1c1nn3cc(F)c(-c4cnc([C@]5(N)C[C@@](C)(O)C5)nc4)nc3c12 [Example 57]
42 | < 25 |  |  | [2H]C([2H])([2H])N1C(=O)c2cccc(OC(F)F)c2[C@H]2C[C@@H]1c1nn3cc(F)c(-c4cnc([C@]5(N)C[C@@](C)(CO)C5)nc4)cc3c12 [Example 270]
43 | < 25 |  |  | [2H]C([2H])([2H])N1C(=O)c2cccc(OC(F)F)c2[C@H]2C[C@@H]1c1nn3ccc(-c4ccc(S(=N)(=O)CC)nc4)cc3c12 (stereo partly drawn) [Example 124]
44 |  | 80 | 5.3 | CN1C(=O)c2cccc(OC(F)F)c2[C@H]2C[C@@H]1c1nc3ccc(-c4cnc([C@]5(N)C[C@@](C)(C#N)C5)c(F)c4)cc3n12 [Comp. Ex #8, reference compound]
45 | < 25 |  |  | CN1C(=O)c2cccc(OC(F)F)c2[C@H]2C[C@@H]1c1nn3ccc(-c4cnc([C@]5(O)C[C@](O)(C(F)F)C5)nc4)cc3c12 [Example 91]

From patent US12410179B2, “Modulators of TNF alpha activity and uses thereof” (RayThera, Inc., priority 2023, dated 2025)
